Assays:
Type in all cases: in vivo
Tiki1 [1] = biological target: T1, Tiki1 (Xenopus tropicalis, UniProt F6PTN1); experiment: Anterior neural marker expression at stage 16 in MO-injected embryos, whole mount in situ hybridization (FIG. 3I)
T1 construct: Thus the endogenous Tiki1 in the Organizer acts in both Wnt-producing and Wnt-responding cells; endogenous in cells; host or cells: Xenopus embryos (dorsal blastomeres / organizer)
T1 sequence (F6PTN1 24-480): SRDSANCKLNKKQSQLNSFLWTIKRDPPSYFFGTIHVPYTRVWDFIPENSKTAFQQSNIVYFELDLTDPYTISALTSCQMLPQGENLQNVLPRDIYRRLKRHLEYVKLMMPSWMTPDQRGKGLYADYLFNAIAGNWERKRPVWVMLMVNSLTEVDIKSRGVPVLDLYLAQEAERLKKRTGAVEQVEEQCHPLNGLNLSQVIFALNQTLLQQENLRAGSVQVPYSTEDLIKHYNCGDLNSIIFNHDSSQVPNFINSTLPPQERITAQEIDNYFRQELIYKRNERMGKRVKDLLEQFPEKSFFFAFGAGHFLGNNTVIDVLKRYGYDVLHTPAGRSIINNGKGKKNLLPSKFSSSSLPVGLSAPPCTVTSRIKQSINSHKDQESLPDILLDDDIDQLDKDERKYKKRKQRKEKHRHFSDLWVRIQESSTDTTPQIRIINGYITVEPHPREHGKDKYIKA
Description: (I) Tiki1 is required for anterior neural patterning. 20 ng of control MO or Tiki1MO plus fluorescein dextran (FLD, as a lineage tracer) were injected into one dorsal blastomere at the 8-cell stage. 50 pg of HA*Tiki1 mRNA were injected into the dorsal-animal blastomeres at the 4-cell stage in rescue experiments. Injected embryos were collected at stage 16 and subjected for whole mount in situ hybridization. Expression of forebrain markers BF1 and Otx2 (not shown) and the midbrain marker Ent was reduced in the Tiki1MO-injected half and was rescued by HA*Tiki1.
Procedures for embryo manipulation, reverse transcription PCR and in situ hybridization were performed as previously described (Tamai et al., 2000). The arrayed Xenopus tropicalis full length cDNAs (Voigt et al., 2005) were used for the screening as performed previously (Kato et al., 2002). cDNA pools (in the CS107 vector) that contain 96 independent clones were transcribed in vitro using SP6 polymerase, and the resulting mRNA pools were injected into the dorsal side of the embryo at 4-cell stage at the dose of 10 ng RNA/embryo. Injected embryos were scored at stage 30-31 for enlarged or diminished anterior development. The positive pools were divided into smaller pools and the same process was repeated till a single cDNA was identified.
The following morpholino oligonucleotides were used: Tiki1 MO: 5′-[…]-3′ (SEQ ID NO:33); standard control MO: 5′-[…]-3′ (SEQ ID NO:34) (Gene Tools, LLC). RT-PCR primers for XTiki1: Forward, 5′-[…]-3′(SEQ ID NO:35), Reverse, 5′-[…]-3′(SEQ ID NO:36); human TIKI1: Forward, 5′-[…]-3′(SEQ ID NO:37), Reverse, 5′-[…]-3′(SEQ ID NO:38); human TIKI2: Forward, 5′-[…]-3′(SEQ ID NO:39), Reverse, 5′-[…]-3′(SEQ ID NO:40).
The fact that Tiki1 is specifically expressed in, and is required for function of, the head organizer implies that Tiki1 has a role in anterior neural patterning. Tiki1MO were injected with fluorescein dextran (FLD, as a lineage tracer) into one dorsal-animal blastomere at the 8-cell stage and analyzed expression of anterior neural markers at stage 16. Tiki1MO suppressed, in the injected half of the embryo, the expression of forebrain marker BF1 and Otx2 (FIG. 3I and Table 3). […] HA*Tiki1 mRNA injection rescued the expression of BF1, Otx2, and Ent in Tiki1MO-injected embryos (FIG. 3I and Table 3).

Tiki1 [2] = biological target: T1, Tiki1; experiment: Tiki1MO loss-of-function phenotype scoring in embryos; conditions: 20 ng into two dorsal blastomeres of 8-cell stage embryos
Description: 20 ng of control MO, Tiki1MO or Tiki1MO together with 50 pg of HA-Tiki1 mRNA was injected into two dorsal blastomeres at the 8-cell stage and the phenotype was scored at stage 42. Lateral view (left) and dorso-anterior view (right) are shown. Con, control.
(C) Statistical data of the Tiki1MO phenotype.
(§1) 20 ng of Tiki1MO were injected into two dorsal blastomeres of 8-cell stage embryos. […] Co-injection of HA*Tiki1 mRNA rescued Tiki1MO phenotypes (FIGS. 3B and 3C). Supporting a role of Tiki1 in Wnt inhibition during head formation, Dkk1 mRNA injection also rescued Tiki1MO anterior deficiency phenotypes (FIG. 3E).

Tiki1 [3] = biological target: T1, Tiki1; experiment: MO block of Tiki1 protein synthesis in animal caps, Western blotting; conditions: animal caps stage 10
Description: (A) 500 pg mRNA for Tiki1-FLAG (targeted by MO) or HA*Tiki1 (resistant to MO) were injected with or without the Tiki1MO (5, 10, 20, 40 ng) into the animal pole at the 2-cell stage, and animal caps were dissected at stage 10 for Western blotting. MO, morpholino antisense oligonucleotide.
as §1

Question: With “Tiki1 MO: morpholino antisense oligonucleotide against Tiki1, 5′-CCAAATGATTACCATCATAGCTCAG-3′ (SEQ ID NO:33) (all phosphorodiamidate morpholino (PMO))” as the substance, how does the “Whole embryos displaying change in gene expression: BF1 Absent, Percentage (%)” value (Tiki1 [1]; gene BF1, stage 16) read?
Answer: Its value is 63%.

Question: What about the “Whole embryos displaying change in gene expression: BF1 NC (No Change), Percentage (%)” value (Tiki1 [1]; gene BF1, stage 16) of the same substance?
Answer: Its value is 14%.

Question: What about the “Whole embryos displaying change in gene expression: BF1 Reduced, Percentage (%)” value (Tiki1 [1]; gene BF1, stage 16) of the same substance?
Answer: The value was 23%.

Question: What about the “Whole embryos displaying change in gene expression: BF1 increased, Percentage (%)” value (Tiki1 [1]; gene BF1, stage 16) of the same substance?
Answer: The value was 0%.

Question: What about the “Whole embryos displaying change in gene expression: En-2 Absent, Percentage (%)” value (Tiki1 [1]; gene En-2, stage 16) of the same substance?
Answer: The value was 40%.

Question: And the “Whole embryos displaying change in gene expression: En-2 NC (No Change), Percentage (%)” value (Tiki1 [1]; gene En-2, stage 16)?
Answer: The value was 35%.

Question: And the “Whole embryos displaying change in gene expression: En-2 Reduced, Percentage (%)” value (Tiki1 [1]; gene En-2, stage 16)?
Answer: Its value is 25%.

Question: What about the “Whole embryos displaying change in gene expression: En-2 increased, Percentage (%)” value (Tiki1 [1]; gene En-2, stage 16) of the same substance?
Answer: The value was 0%.

Question: What about the “Whole embryos displaying change in gene expression: HoxB9 Absent, Percentage (%)” value (Tiki1 [1]; gene HoxB9, stage 16) of the same substance?
Answer: The value was 0%.

Question: And the “Whole embryos displaying change in gene expression: HoxB9 NC (No Change), Percentage (%)” value (Tiki1 [1]; gene HoxB9, stage 16)?
Answer: Its value is 100%.

Question: What about the “Whole embryos displaying change in gene expression: HoxB9 Reduced, Percentage (%)” value (Tiki1 [1]; gene HoxB9, stage 16) of the same substance?
Answer: The value was 0%.

Question: And the “Whole embryos displaying change in gene expression: HoxB9 increased, Percentage (%)” value (Tiki1 [1]; gene HoxB9, stage 16)?
Answer: The value was 0%.

Question: What about the “Whole embryos displaying change in gene expression: Otx2 Absent, Percentage (%)” value (Tiki1 [1]; gene Otx2, stage 16) of the same substance?
Answer: Its value is 35%.

Question: What about the “Whole embryos displaying change in gene expression: Otx2 NC (No Change), Percentage (%)” value (Tiki1 [1]; gene Otx2, stage 16) of the same substance?
Answer: The value was 35%.

Question: What about the “Whole embryos displaying change in gene expression: Otx2 Reduced, Percentage (%)” value (Tiki1 [1]; gene Otx2, stage 16) of the same substance?
Answer: The value was 30%.

Question: What about the “Whole embryos displaying change in gene expression: Otx2 increased, Percentage (%)” value (Tiki1 [1]; gene Otx2, stage 16) of the same substance?
Answer: Its value is 0%.

Question: And the “Injected embryos that developed anterior defects” value (Tiki1 [2])?
Answer: Its value is “roughly 50%”.

Question: What about the “Synthesis of exogenously expressed Tiki1-FLAG” value (Tiki1 [3]; 5, 10, 20, 40 ng MO) of the same substance?
Answer: The value was “specifically blocked the synthesis”.

Question: What about the “Synthesis of HA*Tiki1 (mRNA lacking the MO complementary sequence)” value (Tiki1 [3]) of the same substance?
Answer: The value was “unable to block the synthesis”.
